Like-named read-outs stand apart in the source and are kept apart here.
Target: Recombinant PRC2 (EZH2-Y641F) (Homo sapiens, UniProt Q15910, Y641F)
Test: In vitro methyltransferase activity test (LANCE Ultra);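 further: compounds tested as an 8-point threefold dilution series, fluorescence read after 1 h detection step at room temperature, IC50 derived from a four-parameter curve fit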
Details: LANCE Ultra detection, 3 hours reaction
[1] = EZH2 Y641F IC50, Recombinant PRC2 (EZH2-Y641F)
[2] = read-out: EZH2 Y641F IC50, Recombinant PRC2 (EZH2-Y641F)

Recombinant PRC2 (EZH2-Y641F), sequence (Q15910 whole entry Y641F): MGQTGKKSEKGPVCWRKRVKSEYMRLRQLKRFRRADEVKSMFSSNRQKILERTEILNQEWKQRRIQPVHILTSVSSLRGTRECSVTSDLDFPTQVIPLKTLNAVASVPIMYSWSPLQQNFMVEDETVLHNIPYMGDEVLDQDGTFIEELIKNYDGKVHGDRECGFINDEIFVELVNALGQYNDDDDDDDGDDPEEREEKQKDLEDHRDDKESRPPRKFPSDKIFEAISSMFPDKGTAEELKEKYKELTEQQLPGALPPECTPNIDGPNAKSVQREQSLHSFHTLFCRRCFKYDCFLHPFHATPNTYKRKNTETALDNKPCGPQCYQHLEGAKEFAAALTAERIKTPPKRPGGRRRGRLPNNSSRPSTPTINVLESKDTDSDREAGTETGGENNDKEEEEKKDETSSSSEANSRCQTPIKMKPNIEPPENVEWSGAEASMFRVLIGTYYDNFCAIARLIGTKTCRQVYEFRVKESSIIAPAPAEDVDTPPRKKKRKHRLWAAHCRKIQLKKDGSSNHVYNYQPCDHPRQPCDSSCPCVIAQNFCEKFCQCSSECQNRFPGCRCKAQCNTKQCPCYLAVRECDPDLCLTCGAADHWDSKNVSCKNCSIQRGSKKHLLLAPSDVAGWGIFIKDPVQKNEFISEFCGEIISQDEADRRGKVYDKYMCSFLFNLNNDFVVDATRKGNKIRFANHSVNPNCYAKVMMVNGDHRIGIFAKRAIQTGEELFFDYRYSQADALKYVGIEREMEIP
Recombinant PRC2 (EZH2-Y641F), sequence (O75530 whole entry partner): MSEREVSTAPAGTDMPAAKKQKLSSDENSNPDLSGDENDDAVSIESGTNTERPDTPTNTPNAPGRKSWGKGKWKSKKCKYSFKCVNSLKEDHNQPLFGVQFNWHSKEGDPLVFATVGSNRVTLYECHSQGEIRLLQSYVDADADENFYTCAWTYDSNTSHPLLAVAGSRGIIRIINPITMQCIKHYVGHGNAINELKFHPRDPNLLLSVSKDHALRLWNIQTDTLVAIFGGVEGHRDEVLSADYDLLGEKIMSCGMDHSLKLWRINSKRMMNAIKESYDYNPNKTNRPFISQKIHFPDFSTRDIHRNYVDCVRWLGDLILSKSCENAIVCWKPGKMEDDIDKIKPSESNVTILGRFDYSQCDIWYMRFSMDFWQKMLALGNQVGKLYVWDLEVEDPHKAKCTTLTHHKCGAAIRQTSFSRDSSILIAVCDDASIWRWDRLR
Recombinant PRC2 (EZH2-Y641F), sequence (Q15022 whole entry partner): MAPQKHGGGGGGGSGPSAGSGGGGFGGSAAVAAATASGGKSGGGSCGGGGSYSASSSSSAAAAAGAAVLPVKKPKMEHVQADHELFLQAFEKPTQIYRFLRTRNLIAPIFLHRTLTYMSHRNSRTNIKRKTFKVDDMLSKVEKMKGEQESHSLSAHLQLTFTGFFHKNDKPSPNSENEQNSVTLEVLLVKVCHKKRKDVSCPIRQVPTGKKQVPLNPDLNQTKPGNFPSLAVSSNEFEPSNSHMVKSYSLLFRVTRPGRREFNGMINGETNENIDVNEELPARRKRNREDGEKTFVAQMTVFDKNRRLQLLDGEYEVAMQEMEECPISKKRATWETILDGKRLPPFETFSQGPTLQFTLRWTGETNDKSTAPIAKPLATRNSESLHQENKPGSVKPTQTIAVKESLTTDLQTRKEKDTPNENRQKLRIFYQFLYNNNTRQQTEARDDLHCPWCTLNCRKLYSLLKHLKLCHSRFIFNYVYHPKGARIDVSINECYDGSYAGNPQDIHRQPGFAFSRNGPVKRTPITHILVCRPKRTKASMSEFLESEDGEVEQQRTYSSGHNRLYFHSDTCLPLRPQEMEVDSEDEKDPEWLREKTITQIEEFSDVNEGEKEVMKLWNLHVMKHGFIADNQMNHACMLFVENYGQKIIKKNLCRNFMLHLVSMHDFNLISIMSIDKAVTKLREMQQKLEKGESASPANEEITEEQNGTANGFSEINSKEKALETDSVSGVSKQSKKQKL
Recombinant PRC2 (EZH2-Y641F), sequence (Q09028 whole entry partner): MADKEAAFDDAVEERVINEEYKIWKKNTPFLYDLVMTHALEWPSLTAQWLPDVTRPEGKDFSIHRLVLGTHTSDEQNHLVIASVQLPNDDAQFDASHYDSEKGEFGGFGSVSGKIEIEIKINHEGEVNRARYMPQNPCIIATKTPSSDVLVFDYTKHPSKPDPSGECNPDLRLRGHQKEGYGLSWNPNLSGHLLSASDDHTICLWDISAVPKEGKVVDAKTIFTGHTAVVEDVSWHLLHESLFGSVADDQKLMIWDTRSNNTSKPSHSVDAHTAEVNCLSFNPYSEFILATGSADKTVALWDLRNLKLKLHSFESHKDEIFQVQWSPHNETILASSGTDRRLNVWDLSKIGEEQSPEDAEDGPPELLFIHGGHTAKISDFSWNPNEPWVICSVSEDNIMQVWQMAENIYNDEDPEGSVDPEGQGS
Recombinant PRC2 (EZH2-Y641F), sequence (Q6ZN18 whole entry partner): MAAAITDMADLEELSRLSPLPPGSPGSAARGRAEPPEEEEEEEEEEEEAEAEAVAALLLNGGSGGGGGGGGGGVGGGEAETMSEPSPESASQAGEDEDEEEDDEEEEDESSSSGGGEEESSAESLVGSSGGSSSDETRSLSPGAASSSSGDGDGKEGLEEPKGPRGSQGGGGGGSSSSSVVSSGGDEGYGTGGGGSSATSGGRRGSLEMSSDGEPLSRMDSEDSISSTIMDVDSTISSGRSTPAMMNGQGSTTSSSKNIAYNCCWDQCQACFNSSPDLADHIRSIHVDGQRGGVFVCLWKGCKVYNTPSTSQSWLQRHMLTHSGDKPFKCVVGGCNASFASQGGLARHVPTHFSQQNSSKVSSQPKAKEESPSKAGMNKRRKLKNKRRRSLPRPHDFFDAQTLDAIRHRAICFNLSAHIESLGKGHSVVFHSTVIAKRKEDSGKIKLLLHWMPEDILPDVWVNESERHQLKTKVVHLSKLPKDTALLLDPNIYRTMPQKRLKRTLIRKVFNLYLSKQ
Procedure: In Vitro Methyltransferase Activity Test
Recombinant PRC2 (EZH2-Y641F) was purchased from Active motif, S-adenosyl-methionine (SAM) and Poly-L-lysine (PLL) were purchased from Sigma-Aldrich, H3(1-50)K27mel polypeptide was purchased from Cisbio. LANCEUltra system (Perkinelmer) was used for detection. In the enzyme activity test, a compound to be tested was 1:3 diluted for 8 gradient points, added into a reaction plate, and then added 100 ng recombinant enzyme. And then a buffer [20 mM Tris pH8.5, 2 mM MgCl2, 0.01% Tween-20, 1 mM TCEP] containing 2.5 M SAM/250 nM H3(1-50)K27mel premixture was added to conduct an enzyme reaction at room tempreture. After reacted for 3 hours, a dection solution containing premixed PLL, detection antibody and Ulight was added, reacted for 1 h at RT, then fluorescence was read on Tecan infinite pro. IC50s were calculated by four-factor model fitting in a XLfit software.

Row | Compound | IC50 [1] [nM] | IC50 [2] [nM]
1 | CCN(c1cc(-c2nccn2C)cc2c(NCc3c(C)cc(C)[nH]c3=O)nccc12)C1CCOCC1 [Compound Z-117] | 348 | 
2 | CCN(c1cc(-c2ccc(N3CCN(C)CC3)nc2)cc2c(NCc3c(C)cc(C)[nH]c3=O)nccc12)C1CCC(NC(C)=O)CC1 (stereo not drawn) [Compound Z-225, N-(4-((1-((4,6-dimethyl-2-oxo-1,2-dihydropyridin-3-yl)methylamino)-7-(6-(4-methylpiperazin-1-yl)pyridin-3-yl)isoquinolin-5-yl) (ethyl)amino)cyclohexyl) acetamide] | 68 | 
3 | CCN(c1cc(C(N)=O)cc2c(NCc3c(C)cc(C)[nH]c3=O)nccc12)C1CCC(N(C)C)CC1 (stereo not drawn) [Compound Z-21] |  | 205
4 | CCN(c1cc(-c2ccc(CN(C)C)nc2)cc2c(NCc3c(C)cc(C)[nH]c3=O)nccc12)C1CCC(N(C)C)CC1 (stereo not drawn) [Compound Z-128] | 225 | 
5 | CCN(c1cc(C(=O)NC2CCN(C)CC2)cc2c(NCc3c(C)cc(C)[nH]c3=O)nccc12)C1CCOCC1 [Compound Z-163] | 33 | 
6 | CCN(c1cc(-c2ccc(CN3CCNCC3)nc2)cc2c(NCc3c(C)cc(C)[nH]c3=O)nccc12)C1CCOCC1 [Compound Z-152] | 96 | 
7 | CCN(c1cc(-c2ccc(N3CCN(C)CC3)nc2)cc2c(NCc3c(OC)cc(C)[nH]c3=O)nccc12)C1CCN(C(C)C)CC1 [Compound Z-191] | 206 | 
8 | CCN(c1cc(-c2ccc(CN3CCOCC3)cc2)cc2c(NCc3c(C)cc(C)[nH]c3=O)nccc12)C1CCC(O)CC1 (stereo not drawn) [Compound Z-88] | 164 | 
9 | CCN(c1cc(-c2ccc(NC3CCOCC3)cc2)cc2c(NCc3c(C)cc(C)[nH]c3=O)nccc12)C1CCOCC1 [Compound Z-32] | 488 | 
10 | CCN(c1cc(Cl)cc2c(NCc3c(C)cc(C)[nH]c3=O)nccc12)C1CCC(N2CCC2)CC1 (stereo not drawn) [Compound Z-205] | 35 | 
11 | CCN(c1cc(N2CCN(C3CCOCC3)CC2)cc2c(NCc3c(C)cc(C)[nH]c3=O)nccc12)C1CCC(N(C)C)CC1 (stereo not drawn) [Compound Z-189] | 307 | 
12 | CCN(c1cc(C(=O)N(C)C2CCN(C)CC2)cc2c(NCc3c(C)cc(C)[nH]c3=O)nccc12)C1CCOCC1 [Compound Z-169] | 451 | 
13 | CCN(c1cc(Cl)cc2c(NCc3c(C)cc(C)[nH]c3=O)nccc12)C1CC2(CNC2)C1 [Compound Z-207] | 32 | 
14 | CCN(c1cc(-c2cnc(N3CCNCC3)nc2)cc2c(NCc3c(C)cc(C)[nH]c3=O)nccc12)[C@H]1CC[C@H](N(C)C)CC1 [Compound Z-160] | 6 | 
15 | CCN(c1cc(-c2ccc(N3CCOCC3)nc2)cc2c(NCc3c(C)cc(C)[nH]c3=O)nccc12)C1CCC(NC(C)=O)CC1 (stereo not drawn) [Compound Z-48] | 303 | 
16 | CCN(c1cc(-c2ccc(C(=O)N3CCOCC3)nc2)cc2c(NCc3c(C)cc(C)[nH]c3=O)nccc12)C1CCN(C(C)C)CC1 [Compound Z-123] | 75 | 

Row | Compound | IC50 [1] [nM] | IC50 [2] [nM]
17 | CCN(c1cc(-c2ccc(CN3CCOCC3)cc2)cc2c(NCc3c(C)cc(C)[nH]c3=O)nccc12)C1CCN(C(C)=O)CC1 [Compound Z-60] | 321 | 
18 | CCN(c1cc(C#N)cc2c(NCc3c(C)cc(C)[nH]c3=O)nccc12)C1CCOCC1 [Compound Z-6, 1-((4,6-dimethyl-2-oxo-1,2-dihydropyridin-3-yl)methylamino)-5-(ethyl (tetrahydro-2H-pyran-4-yl)amino)isoquinoline-7-carbonitrile] | 611 | 
19 | CCN(c1cc(-c2cnn(C3CCN(C)CC3)c2)cc2c(NCc3c(C)cc(C)[nH]c3=O)nccc12)C1CCC(N(C)C)CC1 (stereo not drawn) [Compound Z-79] | 45 | 
20 | CCc1cc(C)[nH]c(=O)c1CNc1nccc2c(N(CC)C3CCC(N(C)C)CC3)cc(Cl)cc12 (stereo not drawn) [Compound Z-204] | 24 | 
21 | CCN(c1cc(-c2ccc(CN3CCC[C@H](O)C3)cc2)cc2c(NCc3c(C)cc(C)[nH]c3=O)nccc12)C1CCOCC1 [Compound Z-31] | 328 | 
22 | CCN(c1cc(-c2cn[nH]c2)cc2c(NCc3c(C)cc(C)[nH]c3=O)nccc12)C1CCC(N(C)C)CC1 (stereo not drawn) [Compound Z-155] | 159 | 
23 | CCN(c1cc(-c2ccc(CN3CCN(C)CC3)cc2)cc2c(NCc3c(C)cc(C)[nH]c3=O)nccc12)C1CCOCC1 [Compound Z-29] | 157 | 
24 | CCN(c1cc(-c2ccc(C(=O)N3CCN(C)CC3)nc2)cc2c(NCc3c(C)cc(C)[nH]c3=O)nccc12)C1CCN(C(C)C)CC1 [Compound Z-124] | 51 | 
25 | CCN(c1cc(-c2ccc(CN3CCNCC3)cc2)cc2c(NCc3c(C)cc(C)[nH]c3=O)nccc12)C1CCC(N(C)C)CC1 (stereo not drawn) [Compound Z-153] | 54 | 
26 | CCN(c1cc(-c2ccc(N3CCOCC3)nc2)cc2c(NCc3c(C)cc(C)[nH]c3=O)nccc12)C1CCN(C(C)=O)CC1 [Compound Z-59] | 277 | 
27 | CCN(c1cc(C(C)C)cc2c(NCc3c(C)cc(C)[nH]c3=O)nccc12)C1CCNCC1 [Compound Z-235, 3-((5-(ethyl (piperidin-4-yl)amino)-7-isopropylisoquinolin-1-ylamino)methyl)-4,6-dimethyl-2(1H)-one] | 129 | 
28 | CCN(c1cc(-c2cccnc2)cc2c(NCc3c(C)cc(C)[nH]c3=O)nccc12)C1CCN(C(C)C)CC1 [Compound Z-68] | 150 | 
29 | CCN(c1cc(Oc2cccnc2)cc2c(NCc3c(C)cc(C)[nH]c3=O)nccc12)[C@H]1CC[C@H](N(C)C)CC1 [Compound Z-188] |  | 112
30 | CCN(c1cc(Cl)cc2c(NCc3c(C)cc(C)nc3O)nccc12)C1CC2CNCC2C1 (stereo not drawn) [Compound Z-9, 3-((7-chloro-5-(ethyl (octahydrocyclopenta[c]pyrrol-5-yl)amino)isoquinolin-1-ylamino)methyl)-4,6-dimethylpyridine-2-ol] | 57 | 
31 | CCN(c1cc(-c2ccc(N3CCN(C)CC3)nc2)cc2c(NCc3c(C)n(C)[nH]c3=O)nccc12)C1CCC(N(C)C)CC1 (stereo not drawn) [Compound Z-216, 4-((5-((4-(dimethylamino)cyclohexyl)(ethyl)amino)-7-(6-(4-methylpiperazin-1-yl)pyridine-3-yl)isoquinolin-1-ylamino)methyl)-1,5-dimethyl-H-pyrazol-3-(2H)-one] | 365 | 

More lines, in order of falling IC50 [1], values ahead:

Row | IC50 [1] [nM] | Compound | IC50 [2] [nM]
32 | 453 | CCN(c1cc(C(=O)N2CCOCC2)cc2c(NCc3c(C)cc(C)[nH]c3=O)nccc12)C1CCOCC1 [Compound Z-167] | 
33 | 348 | CCN(c1cc(C#CCN2CCOCC2)cc2c(NCc3c(C)cc(C)[nH]c3=O)nccc12)C1CCOCC1 [Compound Z-178] | 
34 | 226 | CCN(c1cc(C#CCN2CCOCC2)cc2c(NCc3c(C)cc(C)[nH]c3=O)nccc12)C1CCN(C(C)=O)CC1 [Compound Z-181] | 
35 | 213 | CCN(c1cc(N2CCN(C)CC2)cc2c(NCc3c(C)cc(C)[nH]c3=O)nccc12)C1CCC(N(C)C)CC1 (stereo not drawn) [Compound Z-187] | 
36 | 203 | CCN(c1cc(Cl)cc2c(NCc3c(C)cc(C)[nH]c3=O)nccc12)C1CCC(N(C)CCOC)CC1 (stereo not drawn) [Compound Z-145] | 
37 | 185 | CCN(c1cc(C2CCN(C)CC2)cc2c(NCc3c(C)cc(C)[nH]c3=O)nccc12)C1CCC(O)CC1 (stereo not drawn) [Compound Z-212] | 
38 | 174 | CCN(c1c(F)c(-c2ccc(N3CCN(C)CC3)nc2)cc2c(NCc3c(C)cc(C)nc3O)nccc12)[C@H]1CC[C@@H](N(C)C)CC1 [Compound Z-231, 3-((5-(((1S,4S)-4-(dimethylamino)cyclohexyl) (ethyl)amino)-6-fluoro-7-(6-(4-methylpiperazin-1-yl)pyridin-3-yl)isoquinolin-1-ylamino)methyl)-4,6-dimethyl-2(1H)-one] | 
39 | 159 | CCN(c1cc(Cl)cc2c(NCc3c(C)cc(C)nc3O)nccc12)[C@H]1CC[C@H](N2CC(OC)C2)CC1 [Compound Z-149] | 
40 | 117 | CCN(c1cc(C(F)(F)F)cc2c(NCc3c(C)cc(C)[nH]c3=O)nccc12)C1CCC(N(C)C)CC1 (stereo not drawn) [Compound Z-134] | 
41 | 100 | CCN(c1cc(-c2ccc(CN3CCOCC3)nc2)cc2c(NCc3c(C)cc(C)[nH]c3=O)nccc12)C1CCN(C(C)C)CC1 [Compound Z-69] | 
42 | 96 | CCN(CC)Cc1ccc(-c2cc(N(CC)C3CCOCC3)c3ccnc(NCc4c(C)cc(C)[nH]c4=O)c3c2)cc1 [Compound Z-27] | 
43 | 86 | CCN(c1cc(-c2ccc(CN3CCNCC3)cc2)cc2c(NCc3c(C)cc(C)[nH]c3=O)nccc12)C1CCOCC1 [Compound Z-8, 3-((5-(ethyl (tetrahydro-2H-pyran-4-yl)amino)-7-(4-(piperazin-1-ylmethyl)phenyl)isoquinoline-1-ylamino)methyl)-4,6-dimethyl-2(1H)-one] | 
44 | 80 | CCN(c1cc(-c2cnc(N3CCOCC3)nc2)cc2c(NCc3c(C)cc(C)[nH]c3=O)nccc12)C1CCN(C(C)C)CC1 [Compound Z-62] | 
45 | 70 | CCN(c1cc(-c2cnc(N3CCN(C)CC3)nc2)cc2c(NCc3c(C)cc(C)[nH]c3=O)nccc12)C1CCN(C(C)C)CC1 [Compound Z-67] | 
46 | 64 | CCN(c1cc(C(N)=O)cc2c(NCc3c(C)cc(C)[nH]c3=O)nccc12)[C@H]1CC[C@H](N(C)C)CC1 [Compound Z-227, 1-((4,6-dimethyl-2-oxo-1,2-dihydropyridin-3-yl)methylamino)-5-(((1R,4R)-4-(dimethylamino)cyclohexyl) (ethyl)amino) isoquinoline-7-carboxamide] | 
47 | 45 | CCN(c1cc(-c2ccc(N3CCN(C)CC3)nc2)cc2c(NCc3c(C)cc(C)[nH]c3=O)ncc(F)c12)C1CCC(N(C)C)CC1 (stereo not drawn) [Compound Z-223, 3-((5-((4-(dimethylamino)cyclohexyl)(ethyl)amino)-4-fluoro-7-(6-(4-methylpiperazin-1-yl)pyridin-3-yl)isoquinolin-1-ylamino)methyl)-4,6-dimethyl-2(1H)-one] | 
48 | 38 | CCN(c1cc(-c2ccc(CN3CCOCC3)cc2)cc2c(NCc3c(C)cc(C)[nH]c3=O)nccc12)C1CCC(N(C)C)CC1 (stereo not drawn) [Compound Z-41] | 
49 | 37 | CCN(c1cc(-c2ccc(N3CCNCC3)nc2)cc2c(NCc3c(C)cc(C)[nH]c3=O)nccc12)C1CCC(NC(C)=O)CC1 (stereo not drawn) [Compound Z-156] | 
50 | 26 | CCN(c1cc(-c2ccc(N3CCN(C)CC3)nc2)cc2c(NCc3c(C)cc(C)[nH]c3=O)nccc12)C1CCN(C)CC1 [Compound Z-50] | 
51 | 19 | CCN(c1cc(-c2ccc(CN3CCNCC3)nc2)cc2c(NCc3c(C)cc(C)[nH]c3=O)nccc12)C1CCC(N(C)C)CC1 (stereo not drawn) [Compound Z-154] | 

Reference: patent US20200262813A1, “1,5,7-TRISUBSTITUTED ISOQUINOLINE DERIVATIVES, PREPARATION THEREOF, AND USE THEREOF IN MEDICINES” (SHANGHAI HAIYAN PHARMACEUTICAL TECHNOLOGY CO., LTD., priority 2016, published 2020)
